Reference: article PMC11448233, “High-throughput screening identification of apigenin that reverses the colistin resistance of mcr-1-positive pathogens” (Microbiology Spectrum, 2024)

Experiments:
[1] = target: T1, mcr-1 protein (Escherichia coli, UniProt A0A0R6L508); assay: microscale thermophoresis; type: binding
T1 construct: gene mcr1; mcr-1 amplified from K. pneumoniae ZJ02, pET28a(+) NheI/XhoI, E. coli BL21(DE3), Ni-NTA; tag removal not mentioned

[2] = target: T1, mcr-1 protein; assay: nano differential scanning fluorimetry; type: binding; details: apigenin 32 µg/mL, mcr-1 100 µg/mL, PBS, 20 min incubation, 25-95 °C at 5 °C/min; Tm lowered (destabilised)

T1 sequence (A0A0R6L508 whole entry): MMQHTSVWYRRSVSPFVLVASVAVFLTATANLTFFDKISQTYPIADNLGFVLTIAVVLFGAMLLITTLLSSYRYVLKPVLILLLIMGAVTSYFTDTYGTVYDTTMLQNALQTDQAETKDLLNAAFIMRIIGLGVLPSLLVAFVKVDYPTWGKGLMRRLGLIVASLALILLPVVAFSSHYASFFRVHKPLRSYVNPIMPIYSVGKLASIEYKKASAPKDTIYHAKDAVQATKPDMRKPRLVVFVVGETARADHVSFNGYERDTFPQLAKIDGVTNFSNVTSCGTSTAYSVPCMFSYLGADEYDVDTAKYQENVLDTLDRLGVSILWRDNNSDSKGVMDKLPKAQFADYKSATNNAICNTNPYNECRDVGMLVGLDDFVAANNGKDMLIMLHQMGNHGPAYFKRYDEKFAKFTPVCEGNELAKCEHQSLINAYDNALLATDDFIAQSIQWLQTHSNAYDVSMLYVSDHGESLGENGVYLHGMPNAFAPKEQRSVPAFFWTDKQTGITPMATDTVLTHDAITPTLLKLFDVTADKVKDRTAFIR

Q: Which Kd [1] does the source give for `O=c1cc(-c2ccc(O)cc2)oc2cc(O)cc(O)c12` [apigenin] here?
A: Its Kd is 4.35 µM.

Q: What about the Tm decrease [2] of the same molecule?
A: Its Tm decrease is 5.7 °C.
